This assay concerns the target T1, Tau P301L (Homo sapiens, UniProt P10636, P618L).
T1 construct: expressed in transfected cells
Put plainly: In vitro tau degradation assay in CHOK1 Tau P301L cells (sarkosyl insoluble tau, WES). The format is cell-based. The following applies: relative to DMSO doxycycline control; for remaining activity at 1 µM: CHO-K1, read-out: Tau Protein Degradation effect at 1 μM. The gist of the method: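 T-Rex CHOK1 clone D1 with doxycycline-inducible (1 μg/ml) Tau P301L treated 48 h with compound at 1 μM, doxycycline removed for the final 24 h. Sarkosyl-insoluble tau quantified by WES capillary electrophoresis with Tau1 antibody, expressed relative to DMSO doxycycline control and binned as ≤50% or >50% remaining.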

The mark [1] stands for this setting: CHOK1 Tau P301L cells, remaining tau in sarkosyl insoluble pellet, 48 hours with test compound at 1 μM, doxycycline removed for last 24 hours.
Where [2] appears, read: remaining tau protein in sarkosyl insoluble pellet, CHOK1 Tau P301L cells treated 48 hours with test compound at 1 μM, doxycycline removed for the last 24 hours.

Counter-ions that a name gives are not always drawn. Like-named read-outs stand apart in the source and are kept apart here. Some results are limits rather than exact numbers.

T1 sequence (P10636 1-441 isoform P10636-8 P301L): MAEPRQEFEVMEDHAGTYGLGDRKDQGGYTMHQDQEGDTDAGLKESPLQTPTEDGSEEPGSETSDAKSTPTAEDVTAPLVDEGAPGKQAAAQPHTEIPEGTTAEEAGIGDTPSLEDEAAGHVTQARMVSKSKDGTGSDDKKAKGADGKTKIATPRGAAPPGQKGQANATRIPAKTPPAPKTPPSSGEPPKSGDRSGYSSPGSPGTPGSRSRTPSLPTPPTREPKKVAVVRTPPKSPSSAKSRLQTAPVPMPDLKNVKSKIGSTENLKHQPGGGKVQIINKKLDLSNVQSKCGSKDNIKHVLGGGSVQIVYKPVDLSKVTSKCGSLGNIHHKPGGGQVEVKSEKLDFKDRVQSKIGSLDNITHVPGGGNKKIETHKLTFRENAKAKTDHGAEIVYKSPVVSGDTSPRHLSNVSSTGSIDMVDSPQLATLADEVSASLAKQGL

As for `COc1ccc2nc(/C=C/C=C/c3ccc(OCCOCCOc4ccc5c(c4)C(=O)N(C4CCC(=O)NC4=O)C5=O)nc3)sc2c1` (stereo not drawn) [Compound 626, 2-(2,6-dioxopiperidin-3-yl)-5-(2-(2-((5-((1E,3E)-4-(6-methoxybenzo[d]thiazol-2-yl)buta-1,3-dien-1-yl)pyridin-2-yl)oxy)ethoxy)ethoxy) isoindoline-1,3-dione], the remaining activity at 1 µM under setting [1] is under 50%.
As to `CN(C)c1ccn2cc(-c3cnc(N4CCC(CCN5CCN(c6ccc7c(c6)C(=O)N(C6CCC(=O)NC6=O)C7=O)CC5)CC4)c(F)c3)nc2c1` (stereo not drawn) [Compound 680, 5-(4-(2-(1-(5-(7-(dimethylamino)imidazo [1,2-a]pyridin-2-yl)-3-fluoropyridin-2-yl)piperidin-4-yl)ethyl)piperazin-1-yl)-2-(2,6-dioxopiperidin-3-yl)isoindoline-1,3-dione], the remaining activity at 1 µM under setting [1] is under 50%.
Consider `Cn1c2ccncc2c2ccc(-c3ccc(O[C@H]4C[C@H](OC5CCN(CCN6CCN(c7ccc8c(c7)C(=O)N(C7CCC(=O)NC7=O)C8=O)CC6)CC5)C4)nc3)cc21` (stereo partly drawn) [Compound 341, 2-(2,6-dioxopiperidin-3-yl)-5-(4-(2-(4-((1r,3r)-3-((5-(5-methyl-5H-pyrido[4,3-b]indol-7-yl)pyridin-2-yl)oxy)cyclobutoxy)piperidin-1-yl)ethyl)piperazin-1-yl) isoindoline-1,3-dione], for which, under setting [2], the remaining activity at 1 µM is over 50%.
Same read-out and setting: in the case of `Cn1c2ccncc2c2ccc(-c3ccc(O[C@H]4C[C@H](Oc5ccc(C#CCNCCCc6ccc7c(c6)CN(C6CCC(=O)NC6=O)C7=O)nc5)C4)nc3)cc21` (stereo partly drawn) [Compound 346, 3-(5-(3-((3-(5-((1r,3r)-3-((5-(5-methyl-5H-pyrido[4,3-b]indol-7-yl)pyridin-2-yl)oxy)cyclobutoxy)pyridin-2-yl)prop-2-yn-1-yl)amino)propyl) 1-oxoisoindolin-2-yl)piperidine-2,6-dione] it was over 50%; in that of `Cn1c2ccncc2c2ccc(-c3ccc(N4CCC(CCN5CCN(c6ccc7c(c6)C(=O)N(C6CCC(=O)NC6=O)C7=O)CC5)CC4)nc3)cc21` (stereo not drawn) [Compound 397, 2-(2,6-dioxopiperidin-3-yl)-5-(4-(2-(1-(5-(5-methyl-5H-pyrido[4,3-b]indol-7-yl)pyridin-2-yl)piperidin-4-yl)ethyl)piperazin-1-yl)isindoline-1,3-dione], under 50%.
Still for that read-out and setting: in the case of `O=C1CCC(N2C(=O)c3ccc(N4CCN(CCC5CCN(C6CCN(c7ccc8c9cnccc9n(C(F)F)c8c7)CC6)CC5)CC4)cc3C2=O)C(=O)N1` (stereo not drawn) [Compound 593] it was under 50%; in that of `Cn1c2ccncc2c2ccc(-c3ccc(O[C@H]4C[C@H](CN5CCN(CCCCCOc6ccc7c(c6)C(=O)N(C6CCC(=O)NC6=O)C7=O)CC5)C4)nc3)cc21` (stereo partly drawn) [Compound 387, 2-(2,6-dioxopiperidin-3-yl)-5-((5-(4-(((1r,3r)-3-((5-(5-methyl-5H-pyrido[4,3-b]indol-7-yl)pyridin-2-yl)oxy)cyclobutyl)methyl)piperazin-1-yl)pentyl)oxy) isoindoline-1,3-dione], under 50%; in that of `O=C1CCC(N2C(=O)c3ccc(OCCOCCOCCN4CCC(c5ccc6c(c5)[nH]c5ccncc56)CC4)cc3C2=O)C(=O)N1` (stereo not drawn) [Compound 431], over 50%.
For the compound `O=C1CCC(N2C(=O)c3cc(F)c(OCCN4CC5(C4)CN(C[C@H]4C[C@H](Oc6ncc(-c7ccc8c9cnccc9n(C(F)F)c8c7)cc6F)C4)C5)cc3C2=O)C(=O)N1` (stereo partly drawn) [Compound 646, 5-(2-(6-(((1r,3r)-3-((5-(5-(difluoromethyl)-5H-pyrido[4,3-b]indol-7-yl)-3-fluoropyridin-2-yl)oxy)cyclobutyl)methyl)-2,6-diazaspiro[3.3]heptan-2-yl)ethoxy)-2-(2,6-dioxopiperidin-3-yl)-6-fluoroisoindoline-1,3-dione], the remaining activity at 1 µM under setting [1] was under 50%.
Regarding `Cc1cc2c(cn1)c1ccc(-c3cnc(N4CCC(CCN5CCN(c6ccc7c(c6)C(=O)N(C6CCC(=O)NC6=O)C7=O)CC5)CC4)c(F)c3)cc1n2C` (stereo not drawn) [Compound 561, 5-(4-(2-(1-(5-(3,5-dimethyl-5H-pyrido[4,3-b]indol-7-yl)-3-fluoropyridin-2-yl)piperidin-4-yl)ethyl)piperazin-1-yl)-2-(2,6-dioxopiperidin-3-yl)isoindoline-1,3-dione], the remaining activity at 1 µM under setting [2] is under 50%.
On to `O=C1CCC(N2C(=O)c3ccc(N4CCN(CCCC5CCN(CC6CC(Oc7ccc(-c8ccc9c(c8)[nH]c8ccncc89)cn7)C6)CC5)CC4)cc3C2=O)C(=O)N1` (stereo not drawn) [Compound 376, 5-(4-(3-(1-(((1r,3r)-3-((5-(5H-pyrido[4,3-b]indol-7-yl)pyridin-2-yl)oxy)cyclobutyl)methyl)piperidin-4-yl)propyl)piperazin-1-yl)-2-(2,6-dioxopiperidin-3-yl)isoindoline-1,3-dione], for which the “Tau Protein Degradation effect at 1 μM” value under setting [2] is recorded as “B (>50% of tau protein remaining (≥50% of tau protein degraded))”.
As for `O=C1CCC(N2C(=O)c3ccc(N4CCC(OC5CCN(C[C@H]6C[C@H](Oc7ncc(-c8ccc9c%10cnccc%10n(C(F)F)c9c8)cc7F)C6)CC5)CC4)cc3C2=O)C(=O)N1` (stereo partly drawn) [Compound N637], under setting [1], the remaining activity at 1 µM was under 50%.
Regarding `O=C1CCC(N2C(=O)c3ccc(OCCN4CCC(OC5CN(c6ncc(-c7ccn8c(n7)nc7ccccc78)cc6C(F)(F)F)C5)CC4)cc3C2=O)C(=O)N1` (stereo not drawn) [Compound 483, 5-(2-(4-((1-(5-(benzo[4,5]imidazo[1,2-a]pyrimidin-2-yl)-3-(trifluoromethyl)pyridin-2-yl)azetidin-3-yl)oxy)piperidin-1-yl)ethoxy)-2-(2,6-dioxopiperidin-3-yl)isoindoline-1,3-dione], the remaining activity at 1 µM under setting [2] is over 50%.
The same measure, in the same setting: in the case of `O=C1CCC(N2C(=O)c3cccc(N4CCN(CCC5CCN(c6ncc(-c7ccc8c9cnccc9n(C(F)F)c8c7)cc6F)CC5)CC4)c3C2=O)C(=O)N1` (stereo not drawn) [Compound 594, 4-(4-(2-(1-(5-(5-(difluoromethyl)-5H-pyrido[4,3-b]indol-7-yl)-3-fluoropyridin-2-yl)piperidin-4-yl)ethyl)piperazin-1-yl)-2-(2,6-dioxopiperidin-3-yl)isoindoline-1,3-dione] it was under 50%.
On the same count and under the same terms, to `O=C1CCC(N2C(=O)c3ccc(OCCCCCN4CCC(OC5CN(c6ccc(-c7ccn8c(n7)nc7ccccc78)cn6)C5)CC4)cc3C2=O)C(=O)N1` (stereo not drawn) [Compound 450, 2-(2,6-dioxo-3-piperidyl)-5-[5-[4-[1-(5-pyrimido[1,2-a]benzimidazol-2-yl-2-pyridyl)azetidin-3-yl]oxy-1-piperidyl]pentoxy]isoindoline-1,3-dione formate] belongs under 50%.

(Values after patent US11912699B2, “Tau-protein targeting compounds and associated” (Arvinas Operations, Inc., priority 2019, dated 2024).)
